Residues, ends and D or L forms follow the SMILES beside them.
Columns and labels:
P. irregulare = assay: Inhibitory effect of pure lipopeptides and their combinations on growth in PDB, OD 600 nm; assay type: cell-based, Pythium irregulare
Method: (§1) Increasing concentrations of pure stocks of surfactin (Sigma S3523, FIG. 3A), fengycin (Sigma SMB00292, FIG. 3B) or iturin (Sigma 11774, FIG. 3C) were added to 48-well microtiter plates containing PDB medium and a fixed fungal spore concentration. Inhibitory effect over two different phytopathogenic species was assayed, F. culmorum (FIG. 3, left) and P. irregulare (FIG. 3, right). Plates were incubated at 25° C. without shaking for 60 hours (in dark conditions) and fungal growth was measured by spectrophotometry at 600 nm. Experiments were carried out in biological duplicates with no major variations in inhibition potency of the tested strains.
(§2) Fungal growth inhibition of increasing concentrations of single compounds was compared with compound combinations, where a fixed concentration of one of them was assayed in combination with increasing concentrations of the second metabolite.

F. culmorum = assay: as above; assay type: cell-based, Fusarium culmorum
Method: as §1, §2

[1] = in the presence of surfactin, FIG. 4
[2] = even at high concentrations (200-400 μg/ml), FIG. 3A

## fengycin
P. irregulare; at surfactin concentrations of 100-200 μg/ml
  effective concentration of fengycin required to inhibit growth: 12.5 µg/mL
P. irregulare; [1]
  increase of bioactivity of fengycin in the presence of surfactin: up to 6 fold
F. culmorum; [1]
  increase of bioactivity of fengycin in the presence of surfactin: up to 6 fold

## iturin
P. irregulare; 60 h, 25° C., FIG. 3C
  effective concentration for growth inhibition: 9 µg/mL
F. culmorum; 60 h, 25° C., FIG. 3C
  effective concentration for growth inhibition: 9 µg/mL

## CC(C)CCCCCCCCC[C@@H]1CC(=O)N[C@@H](CCC(=O)O)C(=O)N[C@@H](CC(C)C)C(=O)N[C@H](CC(C)C)C(=O)N[C@@H](C(C)C)C(=O)N[C@@H](CC(=O)O)C(=O)N[C@H](CC(C)C)C(=O)N[C@@H](CC(C)C)C(=O)O1 [surfactin] (HELM PEPTIDE1{E.L.[dL].V.D.[dL].L}|CHEM1{[CC(C)CCCCCCCCC[C@H](CC(=O)[*:1])O[*:2]]}$PEPTIDE1,CHEM1,1:R1-1:R1|PEPTIDE1,CHEM1,7:R2-1:R2$$$V2.0)
P. irregulare; [2]
  inhibitory effect on growth: very modest
F. culmorum; [2]
  inhibitory effect on growth: very modest

Source: patent publication US20260047583A1, “Bacillus Strain and Variants Thereof for Inhibition of Plant Diseases” (CHR. HANSEN A/S, priority 2022, published 2026)
